Assay results taken from US12358921B2, “Antiviral heterocyclic compounds” (priority 2022, dated 2025).

How the values were obtained:
hMPV A2 TN/94-49 = experiment: HMPV antiviral assay Method 1 (LLC-MK2 cells, ATP-Lite); type: cell-based; details: hMPV A2 TN/94-49, LLC-MK2 cells
Procedure: In vitro HMPV antiviral activity was evaluated using the clinical isolate A2 strain TN 94-49 (obtained from Dr. John Williams, Vanderbilt University, Tennessee) and […] cells (ATCC #CCL-7), an immortalized kidney epithelial cell line from Macaca mulatta. Compounds were resuspended in dimethyl sulfoxide (DMSO) at 10 mM, serially diluted and added to a 384-well source plate. Subsequently, the compounds were diluted and transferred onto 384-well assay plates using the Echo-650 automated liquid handling system (Beckman Coulter, Indiana). The test compounds were assessed in duplicate at a top concentration of 2 μM followed by 2.5-fold serial dilutions to give a total of 10 concentration points. DMSO control wells were also included on the assay plates and were either infected or not, acting as positive and negative controls. A2 TN 94-49 virus infections were performed in-suspension with LLC-MK2 cells. The cells were washed twice with PBS and removed from the cell-culture flask with 0.25% trypsin-EDTA (Thermo Fisher Scientific, MA). The trypsin-EDTA was inactivated by resuspending in 2% fetal bovine serum (FBS) and OptiMEM (ThermoFisher Scientific, MA) containing 1% penicillin-streptomycin. Cells were pelleted by centrifuging for 5 minutes at 800 rpm, the supernatant was removed, and cells were re-suspended and washed in PBS plus 100 μg/mL CaCl2). This step was performed twice. Cells were then re-suspended in serum-free (SF)-OptiMEM containing 4 μg/mL TPCK-Trypsin (Sigma Aldrich, MO), 1% penicillin-streptomycin (ThermoFisher Scientific, MA) and 100 μg/mL CaCl2). Cells were counted and seeded at a density of 5,000 cells/well, 12.5 μL/well. Virus infections were done at a multiplicity of infection (MOI) of 0.005 with 12.5 μL added per well. Virus infections were performed in infection media which contained SF-OptiMEM, 100 μg/mL CaCl2) and 1% penicillin-streptomycin. HMPV viral stocks are suspended in infection media+5% glycerol, thus an equal volume of infection media+5% glycerol was added to uninfected wells to equalize the final % glycerol across all wells of the assay plate. The final concentration of TPCK-trypsin was 2 μg/mL. The assay plates were incubated at 37° C., 5% CO2 for 7 days. After 7 days incubation, 12.5 μL of ATP-Lite (PerkinElmer, MA) was added to each well and the raw luminescence values were determined using the Envision 2104 (Perkin Elmer, MA). The average of the raw luminescence values for the cells and virus only positive control wells was subtracted from all conditions tested and the percent cell health was determined by dividing these values by the average of the cells only negative control wells. EC50 values were then calculated by non-linear regression using a four-parameter curve logistic equation. The curve fit model employed was XLFit Dose Response One Site Model 200: y=(A+(B/(1+((x/C)^D)))), where A is the minimum y value, B is the maximum y value, C is the log EC50value, and D is the slope factor. Method 2: In Vitro HMPV Antiviral Activity was Evaluated Using the Clinical Isolate A2 Strain TN 94-49

[1] = system: HUMAN RSV-A (“LONG” STRAIN); experiment: RSV-A assay (CPE, ATPlite) in Hep-2 cells; type: cell-based; details: human respiratory syncytial virus, 120 h, MOI 0.1, 5-day incubation
Outline: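 Hep-2 cells (8,000/well) given 2-fold serial compound dilutions in duplicate, then infected with RSV-A Long strain at MOI 0.1. After 5 days, virus-induced cytopathic effect quantified as cellular ATP by ATPlite luminescence, against virus-only and uninfected controls; EC50 reported in ranges.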

SMILES | EC50 (hMPV A2 TN/94-49) | EC50 [1]
COc1cc(C(=O)NC[C@](O)(c2cc3c(c(-c4cc(Cl)c(F)cc4F)n2)OC[C@]3(C)C(N)=O)C2CC2)cc2cc(C(F)(F)F)cnc12 [Example 1] | > 500 nM | < 200 nM
C[C@]1(C(N)=O)COc2c1cc([C@@](O)(CNC(=O)c1cc(OC3CC3)c3nn(C4CC4)cc3c1)C1CC1)nc2-c1cc(Cl)c(F)cc1F [Example 2] | < 500 nM | < 200 nM
C[C@]1(C(N)=O)COc2c1cc([C@@](O)(CNC(=O)c1cc(OC(F)F)c3nn(C4CC4)cc3c1)C1CC1)nc2-c1cc(F)c(F)cc1F [Example 6] | < 500 nM | < 200 nM
[2H]C([2H])([2H])c1nc2c(OC)cc(C(=O)NC[C@](O)(c3cc4c(c(-c5cc(F)c(F)cc5F)n3)OC[C@]4(C)C(N)=O)C3CC3)cc2cc1Br [Example 7] | < 500 nM | < 200 nM
[2H]C([2H])([2H])c1nc2c(OC)cc(C(=O)NC[C@@](O)(c3ccccc3)c3cc4c(c(-c5ccc6c(c5)OC(F)(F)O6)n3)OC[C@]4(C)C(N)=O)cc2s1 [Example 9] | < 500 nM | < 200 nM
[2H]C([2H])([2H])c1nc2c(OC)cc(C(=O)NC[C@](O)(c3cc4c(c(-c5cc(Cl)c(F)cc5F)n3)OC[C@]4(C)C(N)=O)C3CC3)cc2s1 [Example 10] | < 500 nM | < 200 nM
[2H]C([2H])([2H])c1nc2c(OC(F)F)cc(C(=O)NC[C@](O)(c3cc4c(c(-c5cc(Cl)c(F)cc5F)n3)OC[C@]4(C)C(N)=O)C3CC3)cc2cc1Br [Example 11] | > 500 nM | < 200 nM
COc1cc(C(=O)NC[C@@](O)(c2ccc(F)cc2)c2cc3c(c(-c4cc(Cl)c(F)cc4F)n2)OC[C@]3(C)C(N)=O)cc2cn(C(F)F)nc12 [Example 13] | < 500 nM | < 200 nM
COc1cc(C(=O)NC[C@@](O)(c2ccc(F)cc2)c2cc3c(c(-c4cc(Cl)c(F)cc4F)n2)OC[C@]3(C)C(N)=O)cc2cc(C3CC3)nn12 [Example 15] | < 500 nM | < 200 nM
[2H]C([2H])([2H])c1nc2c(OC)cc(C(=O)NC[C@@](O)(c3ccc(F)cc3)c3cc4c(c(-c5cc(Cl)c(F)cc5F)n3)OC[C@]4(C)C(N)=O)cc2s1 [Example 16] | < 500 nM | < 200 nM
COc1cc(C(=O)NC[C@@](O)(c2ccc(F)cc2)c2cc3c(c(-c4cc(Cl)c(F)cc4F)n2)OC[C@]3(C)C(N)=O)cc2cc(Cl)c(C)nc12 [Example 17] | < 500 nM | < 200 nM
[2H]C([2H])([2H])c1cc2cc(C(=O)NC[C@](O)(c3cc4c(c(-c5ccc(F)c(Cl)c5)n3)OC[C@]4(C)C(N)=O)C(F)(F)F)cc(OC)c2nc1C [Example 20] | > 500 nM | < 200 nM
[2H]C([2H])([2H])c1nc2c(OC)cc(C(=O)NC[C@](O)(c3cc4c(c(-c5ccc(F)c(Cl)c5Cl)n3)OC[C@]4(C)C(N)=O)C3CC3)cc2cc1Br [Example 24] | < 500 nM | < 200 nM
COc1cc(C(=O)NC[C@@](O)(c2ccc(F)cc2)c2cc3c(c(-c4ccc5c(c4Cl)OC(F)(F)O5)n2)OC[C@]3(C)C(N)=O)cc2cc(C(F)(F)F)cnc12 [Example 26] | > 500 nM | < 200 nM
[2H]C([2H])([2H])c1nc2c(OC)cc(C(=O)NC[C@@](O)(c3ccc(F)cc3)c3cc4c(c(-c5ccc6c(c5Cl)OC(F)(F)O6)n3)OC[C@]4(C)C(N)=O)cc2s1 [Example 27] | < 500 nM | < 200 nM
[2H]C([2H])([2H])c1cc2cc(C(=O)NC[C@](O)(c3cc4c(c(-c5cc(F)c(F)cc5F)n3)OC[C@]4(C)C(N)=O)C3CC3)cc(OC)c2nc1C([2H])([2H])[2H] [Example 28] | < 500 nM | < 200 nM
[2H]C([2H])([2H])c1cc2cc(C(=O)NC[C@](O)(c3cc4c(c(-c5cc(Cl)c(F)cc5F)n3)OC[C@]4(C)C(N)=O)C3CC3)cc(OC)c2nc1C([2H])([2H])[2H] [Example 29] | < 500 nM | < 200 nM

SMILES | EC50 (hMPV A2 TN/94-49) | EC50 [1]
[2H]c1nc2c(OC)cc(C(=O)NC[C@](O)(c3cc4c(c(-c5cc(F)c(F)cc5F)n3)OC[C@]4(C)C(N)=O)C3CC3)cc2cc1Br [Example 30] | < 500 nM | < 200 nM
COc1cc(C(=O)NC[C@](O)(c2cc3c(c(-c4cc(F)c(F)cc4F)n2)OC[C@]3(C)C(N)=O)C2CC(F)(F)C2)cc2cn(C3CC3)nc12 [Example 31] | < 500 nM | < 200 nM
C[C@]1(C(N)=O)COc2c1cc([C@@](O)(CNC(=O)c1cc(Cl)c3nn(C4CC4)cc3c1)C1CC1)nc2-c1ccc2c(c1Cl)OC(F)(F)O2 [Example 35] | < 500 nM | < 200 nM
COc1cc(C(=O)NC[C@](O)(c2cc3c(c(-c4cccc(SC(F)(F)F)c4)n2)OC[C@]3(C)C(N)=O)C2CC2)cc2cn(C3CC3)nc12 [Example 36] | > 500 nM | < 200 nM
C[C@]1(C(N)=O)COc2c1cc([C@@](O)(CNC(=O)c1cc(OC(F)F)c3nn(C4CC4)cc3c1)C1CC1)nc2-c1ccc(F)c(F)c1Cl [Example 39] | < 500 nM | < 200 nM
C[C@]1(C(N)=O)COc2c1cc([C@@](O)(CNC(=O)c1cc(OC(F)F)c3nn(C4CC4)cc3c1)C1CC1)nc2-c1ccc(F)c(Cl)c1F [Example 40] | < 500 nM | < 200 nM
COc1cc(C(=O)NC[C@@](O)(c2ccc(F)cc2)c2cc3c(c(-c4ccc(F)c(Cl)c4Cl)n2)OC[C@]3(C)C(N)=O)cc2cn(C(F)F)nc12 [Example 42] | < 500 nM | < 200 nM
COc1cc(C(=O)NC[C@@](O)(c2ccc(F)cc2)c2cc3c(c(-c4ccc(F)c(Cl)c4Cl)n2)OC[C@]3(C)C(N)=O)cc2cc(Cl)c(C)nc12 [Example 44] | < 500 nM | < 200 nM
COc1cc(C(=O)NC[C@@](O)(c2ccc(F)cc2)c2cc3c(c(-c4ccc(F)c(Cl)c4Cl)n2)OC[C@]3(C)C(N)=O)cc2cc(C3CC3)nn12 [Example 45] | < 500 nM | < 200 nM
COc1cc(C(=O)NC[C@](O)(c2cc3c(c(-c4cc(F)c(F)cc4F)n2)OC[C@]3(C)C(N)=O)C2CC2)cc2cc(C(F)(F)F)cnc12 [Example 46] | > 500 nM | < 200 nM
COc1cc(C(=O)NC[C@](O)(c2cc3c(c(-c4cc(Cl)cc(C)c4F)n2)OC[C@]3(C)C(N)=O)C2CC2)cc2cn(C3CC3)nc12 [Example 47] | > 500 nM | < 200 nM
COc1cc(C(=O)NC[C@](O)(c2cc3c(c(-c4ccc5ccsc5c4)n2)OC[C@]3(C)C(N)=O)C2CC2)cc2cn(C3CC3)nc12 [Example 48] | > 500 nM | < 200 nM
COc1cc(C(=O)NC[C@](O)(c2cc3c(c(-c4cc(C)cc(F)c4F)n2)OC[C@]3(C)C(N)=O)C2CC2)cc2cn(C3CC3)nc12 [Example 49] | > 500 nM | < 200 nM
COc1cc(C(=O)NC[C@](O)(c2cc3c(c(-c4cc(Cl)c(C)cc4F)n2)OC[C@]3(C)C(N)=O)C2CC2)cc2cn(C3CC3)nc12 [Example 51] | > 500 nM | < 200 nM
COc1cc(C(=O)NC[C@@](O)(c2ccccc2)c2cc3c(c(-c4cc(Cl)c(F)cc4F)n2)OC[C@]3(C)C(N)=O)cc2cc(C(F)(F)F)cnc12 [Example 83] | < 500 nM | –
COc1cc(C(=O)NC[C@@](O)(c2ccccc2)c2cc3c(c(-c4cc(Cl)c(F)cc4F)n2)OC[C@]3(C)C(N)=O)cc2oc(C)nc12 [Example 84] | < 500 nM | –
COc1cc(C(=O)NC[C@@](O)(c2cc3c(c(-c4cc(Cl)c(F)cc4F)n2)OC[C@]3(C)C(N)=O)c2cc(C)cs2)cc2cn(C3CC3)nc12 [Example 466] | > 500 nM | –
